Test systems include 786-0 renal; CAKI-1 renal; DU-145 prostate; HCT-116 colon; HT29 colon; OVCAR-5 ovarian; OVCAR-8 ovarian; RPMI-8226 leukemia; SK-MEL-2 melanoma; SK-MEL-28 melanoma; SN12C renal; U251 CNS.
What all share (test): growth of human tumour cells (NCI), 48 h

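A five-concentration, 48-hour dose response in 96-well plates underlies each endpoint, interpolated linearly between surrounding concentrations. TGI: concentration producing complete growth inhibition.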

In the case of `CN(C)c1ccc(C(Cc2ccccc2)C2NC(=S)NC2=O)cc1` (stereo unspecified), the TGI in the assay with 786-0 renal, in the assay on CAKI-1 renal, with DU-145 prostate, with HCT-116 colon, with HT29 colon and in the assay on OVCAR-5 ovarian was > 100 µM in each case. In addition, the TGI in the assay with OVCAR-8 ovarian, in the assay with RPMI-8226 leukemia, in the assay on SK-MEL-2 melanoma, with SK-MEL-28 melanoma, with SN12C renal and with U251 CNS was > 100 µM each time.
Take `CN1c2ccccc2C(=O)NC12CCN(CCCC(=O)c1ccc(F)cc1)CC2`: the TGI is > 100 µM with 786-0 renal; > 100 µM in the assay on CAKI-1 renal; > 100 µM in the assay on DU-145 prostate; > 100 µM with HCT-116 colon; 56.1 µM with HT29 colon; > 100 µM with OVCAR-5 ovarian. The TGI in the assay on OVCAR-8 ovarian, in the assay on RPMI-8226 leukemia, with SK-MEL-2 melanoma, with SK-MEL-28 melanoma, in the assay on SN12C renal and in the assay on U251 CNS was > 100 µM throughout.
As for `O=C(NC1CCCCC1NC(c1ccccc1)(c1ccccc1)c1ccccc1)C(=O)NC1CCCCC1NC(c1ccccc1)(c1ccccc1)c1ccccc1` (stereo unspecified), the TGI in the assay on 786-0 renal, in the assay on CAKI-1 renal, with DU-145 prostate, with HCT-116 colon, in the assay with HT29 colon and in the assay on OVCAR-5 ovarian was > 100 µM in each case. For the same compound, the TGI in the assay on OVCAR-8 ovarian was > 100 µM; in the assay with RPMI-8226 leukemia, > 100 µM; in the assay on SK-MEL-2 melanoma, > 100 µM; in the assay on SK-MEL-28 melanoma, > 100 µM; with SN12C renal it was > 100 µM; with U251 CNS, 57.4 µM.
Consider `C=CCC1(OCc2ccccc2)C(=O)C(=O)OC1C1COC(C)(C)O1` (stereo unspecified), for which the TGI with 786-0 renal, in the assay with CAKI-1 renal, with DU-145 prostate, in the assay on HCT-116 colon, in the assay on HT29 colon and in the assay with OVCAR-5 ovarian was > 100 µM each time. Also, the TGI in the assay on OVCAR-8 ovarian, with RPMI-8226 leukemia, in the assay with SK-MEL-2 melanoma, in the assay on SK-MEL-28 melanoma, with SN12C renal and in the assay with U251 CNS was > 100 µM each time.
Consider `CCN(CC)CC1CCCCN1CC(=O)N1c2ccccc2C(=O)Nc2cccnc21` (stereo unspecified), for which the TGI with 786-0 renal was > 100 µM; with CAKI-1 renal, > 100 µM; in the assay with DU-145 prostate, > 100 µM; in the assay with HCT-116 colon, 37.2 µM; with HT29 colon it was > 100 µM; in the assay with OVCAR-5 ovarian, > 100 µM. Also, the TGI is > 100 µM in the assay on OVCAR-8 ovarian; 74.2 µM with RPMI-8226 leukemia; > 100 µM in the assay on SK-MEL-2 melanoma; > 100 µM in the assay with SK-MEL-28 melanoma; > 100 µM in the assay on SN12C renal; > 100 µM in the assay on U251 CNS.
On to `COc1cc2c(c(OC)c1)/C(=C/Sc1ccccc1)C(=O)N(C(C)(C)C)C2`, for which the TGI in the assay with 786-0 renal is > 100 µM; with CAKI-1 renal it was > 100 µM; in the assay with DU-145 prostate it was > 100 µM; in the assay on HCT-116 colon, 40.2 µM; in the assay on HT29 colon, 75.1 µM; in the assay on OVCAR-5 ovarian it was > 100 µM. Further, the TGI in the assay with OVCAR-8 ovarian was 79.6 µM; in the assay with RPMI-8226 leukemia it was 94.5 µM; with SK-MEL-2 melanoma, 42.5 µM; in the assay on SK-MEL-28 melanoma, > 100 µM; with SN12C renal it was 69 µM; in the assay on U251 CNS, 98.6 µM.
With `Cc1ccc(NC(Nc2ccc(C)cc2C)=C(/C=C(\Cl)[N+](=O)[O-])[N+](=O)[O-])c(C)c1`, the TGI was found to be 8.95 µM in the assay with 786-0 renal; 4.23 µM with CAKI-1 renal; 33.2 µM with DU-145 prostate; 3.14 µM in the assay with HCT-116 colon; 18.8 µM with HT29 colon; 19.7 µM with OVCAR-5 ovarian. Further, the TGI is 7.86 µM with OVCAR-8 ovarian; 4.36 µM in the assay on RPMI-8226 leukemia; 16.9 µM with SK-MEL-2 melanoma; 4.77 µM with SK-MEL-28 melanoma; 14.4 µM in the assay on SN12C renal; 23.6 µM in the assay with U251 CNS.
Consider `CC(=O)c1ccc2c(c1)CC1(C2)Cc2cc3c(cc2C1=O)CCC3` (stereo unspecified), for which the TGI was 63.1 µM with 786-0 renal; 47 µM in the assay with CAKI-1 renal; 61.9 µM in the assay with DU-145 prostate; 44 µM in the assay on HCT-116 colon; > 100 µM with HT29 colon; 83 µM in the assay on OVCAR-5 ovarian. Besides, the TGI is 36.1 µM in the assay on OVCAR-8 ovarian; 35.2 µM in the assay with RPMI-8226 leukemia; 46.2 µM with SK-MEL-2 melanoma; 48.8 µM in the assay with SK-MEL-28 melanoma; 57.3 µM in the assay on SN12C renal; > 100 µM in the assay with U251 CNS.

For the origin of these results see PubChem BioAssay (NCI).
